Reference: patent US6727253B2, “Treatment of accidental extravasation of anthracyclines” (Antianthra APS, priority 1999, dated 2004)
Like-named read-outs stand apart in the source and are kept apart here.

Experiments:
[1] = system: SC daunorubicin induced wounds in mice; conditions: for AUC / DW / FW / TTW: Table A
Method: The mice were euthanized after healing of all wounds.
The effect of various doses of ICRF-187 was investigated in Example 3.
Comparison of two concentrations of sc daunorubicin were compared with and without simultaneous treatment with ICRF-187 250 mg/kg.
ICRF-187 was administered at the same time as daunorubicin, 3 hours after, and 6 hours after, respectively. Saline served as control. The dose of daunorubicin was 3 mg/kg so and ICRF-187 was administered IP in a 250 mg/kg solution. Twenty-eight mice were used. The results are depicted in data sheet #6 and the mean AUCs are shown graphically in FIG. 5.
100 mg/kg ICRF-187 was injected into the subcutaneous papule produced by injected daunorubicin. This treatment was compared to intralesional saline control, IP saline control, and IP treatment with ICRF-187.
[…]. Seven experiments (n=6, 7, 7, 9, 9, 9, and 9) with 3 mg/kg daunorubicin SC plus saline IP at t=0 and seven experiments (n=6, 7, 7, 9, 9, 8, and 9) with 3 mg/kg daunorubicin SC plus 250 mg/kg ICRF-187 IP at t=0tin two experiments (n=9 and 4) the ICRF-187 doses were 62,5 mg/kg and 375 mg/kg IP, respectively, in two (n=7 and 9) the dose was 125 mg/kg. ICRF-187 250 mg/kg was administered IV in one (n=9).

[2] = system: extravasation of doxorubicin in a patient; assay: Clinical results in a patient with doxorubicin extravasation; assay type: in vivo
[3] = Example 3, daunorubicin 3 mg/kg sc + ICRF-187 250 mg/kg IP
[4] = Example 3, daunorubicin 3 mg/kg sc + ICRF-187 375 mg/kg IP
[5] = Example 4, daunorubicin 1 mg/kg sc + ICRF-187 250 mg/kg IP simultaneous
[6] = Example 4, daunorubicin 3 mg/kg sc + ICRF-187 250 mg/kg IP simultaneous
[7] = Example 5, daunorubicin 1 mg/kg sc + ICRF-187 250 mg/kg IP
[8] = Example 5, daunorubicin 3 mg/kg sc + ICRF-187 250 mg/kg IP
[9] = Example 6, daunorubicin 3 mg/kg sc + ICRF-187 250 mg/kg IP 3 hours after daunorubicin
[10] = Example 6, daunorubicin 3 mg/kg sc + ICRF-187 250 mg/kg IP 6 hours after daunorubicin
[11] = Example 6, daunorubicin 3 mg/kg sc + ICRF-187 250 mg/kg IP at the same time
[12] = Example 7, daunorubicin 3 mg/kg sc + 0.05 ml ICRF-187 100 mg/kg IL
[13] = Example 7, daunorubicin 3 mg/kg sc + ICRF-187 250 mg/kg IP
[14] = daunorubicin 1 mg/kg SC + DEX 250 mg/kg IP at t=0, pooled data
[15] = daunorubicin 3 mg/kg SC + DEX 125 mg/kg IP at t=0, +3h and +6h
[16] = daunorubicin 3 mg/kg SC + DEX 125 mg/kg IP at t=0, pooled data
[17] = daunorubicin 3 mg/kg SC + DEX 250 mg/kg IP at t=0, pooled data
[18] = daunorubicin 3 mg/kg SC + DEX 250 mg/kg IP at t=0, pooled data, listed as DEX
[19] = daunorubicin 3 mg/kg SC + DEX 250 mg/kg IP at t=+3h
[20] = daunorubicin 3 mg/kg SC + DEX 250 mg/kg IP at t=+6h
[21] = daunorubicin 3 mg/kg SC + DEX 250 mg/kg IP day 0, 1, and 2
[22] = daunorubicin 3 mg/kg SC + DEX 250 mg/kg IV at t=0
[23] = daunorubicin 3 mg/kg SC + DEX 375 mg/kg IP at t=0
[24] = daunorubicin 3 mg/kg SC + DEX 62,5 mg/kg IP at t=0
[25] = daunorubicin 3 mg/kg SC + DEX 62,5 mg/kg IP at t=0, +3h and +6h
[26] = pooled, daunorubicin 3 mg/kg SC, ICRF-187 250 mg/kg IP at t=0, p<0.0001

With C[C@@H](CN1CC(=O)NC(=O)C1)N1CC(=O)NC(=O)C1 [ICRF-187, (+)-1,2-bis(3,5-dioxopiperazinyl-1-yl)propane] the “Mean AUC” value [1, 3] was 395 mm^2 × days, the “Mean DWw ± SEM” value [1, 3] was 29.2 ± 1.1 days and the “Mean TTWw ± SEM” value [1, 3] was 7.8 ± 1.1 days. The Nw/NG [1, 3] was 83%, the “Mean AUC” value [1, 4] was 57 mm^2 × days and the “Mean DWw ± SEM” value [1, 4] was 27.0 ± 0.0 days. For the same molecule, the “Mean TTWw ± SEM” value [1, 4] was 4.0 ± 0.0 days, the Nw/NG [1, 4] was 25% and the “reduction of the AUC” value ([1]; Example 3, daunorubicin 3 mg/kg sc, ICRF-187 250 mg/kg vs saline, p<0.05) was 48%. For the same molecule, the “reduction of the AUC” value ([1]; Example 3, daunorubicin 3 mg/kg sc, ICRF-187 375 mg/kg vs saline, p<0.05) was 93%, the “reduction in AUC” value ([1]; Example 4, daunorubicin 1 mg/kg sc (low dose), ICRF-187 250 mg/kg IP, p<0.05) was 100% and the “Mean AUC” value [1, 5] was 0 mm^2 × days. The Nw/NG [1, 5] was 0%, the “reduction in AUC” value ([1]; Example 4, daunorubicin 3 mg/kg sc (high dose), ICRF-187 250 mg/kg IP, p<0.05) was 75% and the “Mean AUC” value [1, 6] was 313 mm^2 × days. For the same molecule, the “Mean DWw ± SEM” value [1, 6] was 14.0 ± 1.5 days, the “Mean TTWw ± SEM” value [1, 6] was 12.0 ± 3.5 days and the Nw/NG [1, 6] was 43%. The “Mean AUC” value [1, 7] was 50 mm^2 × days, the “Mean DWw ± SEM” value [1, 7] was 16.0 ± 4.0 days and the “Mean TTWw ± SEM” value [1, 7] was 10.5 ± 3.5 days. For the same molecule, the Nw/NG [1, 7] was 22%, the “reduction of AUC” value ([1]; Example 5, daunorubicin 1 mg/kg sc, ICRF-187 250 mg/kg IP, p<0.05) was 73% and the “Mean AUC” value [1, 8] was 158 mm^2 × days. For the same molecule, the “Mean DWw ± SEM” value [1, 8] was 13.7 ± 1.7 days, the “Mean TTWw ± SEM” value [1, 8] was 9.9 ± 1.8 days and the Nw/NG [1, 8] was 78%. The “reduction of AUC” value ([1]; Example 5, daunorubicin 3 mg/kg sc, ICRF-187 250 mg/kg IP, p<0.05) was 83%, the “Mean AUC” value [1, 9] was 421 mm^2 × days and the “Mean DWw ± SEM” value [1, 9] was 21.0 ± 4.0 days. The “Mean TTWw ± SEM” value [1, 9] was 7.0 ± 0.6 days, the Nw/NG [1, 9] was 43% and the “Mean AUC” value [1, 10] was 926 mm^2 × days. For the same molecule, the “Mean DWw ± SEM” value [1, 10] was 24.9 ± 0.8 days, the “Mean TTWw ± SEM” value [1, 10] was 6.7 ± 0.6 days and the Nw/NG [1, 10] was 100%. For the same molecule, the “Mean AUC” value [1, 11] was 326 mm^2 × days, the “Mean DWw ± SEM” value [1, 11] was 19.6 ± 0.7 days and the “Mean TTWw ± SEM” value [1, 11] was 7.7 ± 0.5 days. The Nw/NG [1, 11] was 100%, the AUC reduced ([1]; Example 6, daunorubicin 3 mg/kg sc, ICRF-187 250 mg/kg IP 6 hours delay, statistically non-significant) was 34% and the AUC reduced ([1]; Example 6, daunorubicin 3 mg/kg sc, ICRF-187 250 mg/kg IP at t=0, p<0.05) was 77%. The AUC reduced ([1]; Example 6, daunorubicin 3 mg/kg sc, ICRF-187 250 mg/kg IP at t=+3 hours, p<0.05) was 70%, the “Mean AUC” value [1, 12] was 403 mm^2 × days and the “Mean DWw ± SEM” value [1, 12] was 19.4 ± 2.3 days. For the same molecule, the “Mean TTWw ± SEM” value [1, 12] was 6.9 ± 1.6 days, the Nw/NG [1, 12] was 78% and the “Mean AUC” value [1, 13] was 562 mm^2 × days. For the same molecule, the “Mean DWw ± SEM” value [1, 13] was 19.0 ± 0.9 days, the “Mean TTWw ± SEM” value [1, 13] was 9.6 ± 0.7 days and the Nw/NG [1, 13] was 89%. The “reduction of the AUC” value ([1]; Example 7, daunorubicin 3 mg/kg sc, ICRF-187 250 mg/kg IP, p<0.05) was 51%, the AUC [1, 14] was 28 (± 22) mm^2×days and the DW [1, 14] was 16.0 (± 4.0) days. For the same molecule, the FW [1, 14] was 13%, the TTW [1, 14] was 10.5 (± 3.5) days and the AUC [1, 15] was 112 (± 37) mm^2×days. The DW [1, 15] was 18.0 (± 0.0) days, the FW [1, 15] was 22% and the TTW [1, 15] was 16.5 (± 0.5) days. For the same molecule, the AUC [1, 16] was 692 (± 115) mm^2×days, the DW [1, 16] was 20.6 (± 0.8) days and the FW [1, 16] was 88%. The TTW [1, 16] was 8.4 (± 0.6) days, the AUC [1, 17] was 373 (± 48) mm^2×days and the DW [1, 17] was 17.4 days. The FW [1, 17] was 78%, the TTW [1, 17] was 9.7 days and the DW [1, 18] was 17.4 (± 0.6) days. The TTW [1, 18] was 9.7 (± 0.5) days, the AUC [1, 19] was 420 (± 206) mm^2×days and the DW [1, 19] was 21.0 (± 4.0) days. For the same molecule, the FW [1, 19] was 43%, the TTW [1, 19] was 7.0 (± 0.6) days and the AUC [1, 20] was 927 (± 163) mm^2×days. The DW [1, 20] was 24.9 (± 0.8) days, the FW [1, 20] was 100% and the TTW [1, 20] was 6.7 (± 0.6) days. For the same molecule, the AUC [1, 21] was 128 (± 34) mm^2×days, the DW [1, 21] was 13.3 (± 1.2) days and the FW [1, 21] was 75%. The TTW [1, 21] was 17.7 (± 1.0) days, the AUC [1, 22] was 479 (± 141) mm^2×days and the DW [1, 22] was 19.3 (± 1.3) days. For the same molecule, the FW [1, 22] was 67%, the TTW [1, 22] was 9.2 (± 1.2) days and the AUC [1, 23] was 57 (± 57) mm^2×days. For the same molecule, the DW [1, 23] was 23.0 (± 0.0) days, the FW [1, 23] was 25% and the TTW [1, 23] was 4.0 (± 0.0) days. The AUC [1, 24] was 662 (± 223) mm^2×days, the DW [1, 24] was 19.4 (± 1.3) days and the FW [1, 24] was 89%. For the same molecule, the TTW [1, 24] was 8.1 (± 0.5) days, the AUC [1, 25] was 0 mm^2×days and the FW [1, 25] was 0%. The prevention of lesions ([1]; daunorubicin induced lesions, ICRF-187 250 mg/kg IP three days in a row) was “completely prevented”, the “protection by IP injection compared to IV administration” value ([1]; daunorubicin induced wounds, ICRF-187 250 mg/kg) was “no statistically significant difference” and the “degree of protection, triple-treatment” value ([1]; daunorubicin, ICRF-187 62,5 or 125 mg/kg IP at 0, 3 and 6 hours) was “at least the same degree of protection as a single injection of 250 mg/kg ICRF-187 IP”. The “protection with delayed administration” value ([1]; daunorubicin, ICRF-187 administered 3 hours after) was “no different from the protection obtained by immediate ICRF-187 administration”, the “protection with delayed administration” value ([1]; daunorubicin, ICRF-187 delay 6 hours) was “protection was lost” and the treatment-related deaths ([1]; mouse, in vivo) was “no treatment-related deaths”. The “reduction in AUC” value ([1]; pooled, daunorubicin 3 mg/kg SC, ICRF-187 125 mg/kg IP, p=0.0175 vs 250 mg/kg) was 45%, the “mean duration of wounds reduced by” value [1, 26] was 35% and the “mean time to wounds delayed by” value [1, 26] was 76%. For the same molecule, the “mean AUC reduced by” value ([1]; pooled, daunorubicin 3 mg/kg SC, single ICRF-187 250 mg/kg IP at t=0, p<0.0001) was 70%, the ulcer or skin-necrosis ([2]; 149 mg doxorubicin infused subcutaneously, ICRF-187 day 1-3, 30 days evaluation) was “No ulcer or signs of skin-necrosis developed” and the “side effects from the treatment” value ([2]; ICRF-187 1000, 1000, 500 mg/m^2 on day 1, 2, 3, initiated 2 h 30 m after extravasation) was “no side effects”.
